Source: ChEMBL document CHEMBL1130815, “Anti-Helicobacter pylori agents. 2. Structure activity relationships in a new series of 2-alkylguanidino-4-furylthiazoles” (1998)
In brackets after ≈: the same amount, converted by molar mass.

Tests used:
[1] = tested on: Neisseria gonorrhoeae; experiment: Compound was evaluated for antimicrobial activity against Neisseria gonorrhoeae; assay type: functional
[2] = tested on: Clostridioides difficile; experiment: Compound was evaluated for antimicrobial activity against Clostridium difficile; assay type: functional
[3] = tested on: Clostridium perfringens; experiment: Compound was evaluated for antimicrobial activity against Clostridium perfringens; assay type: functional
[4] = tested on: Helicobacter pylori; experiment: Compound was evaluated for antimicrobial activity against Helicobacter pylori; assay type: functional
[5] = tested on: Campylobacter jejuni; experiment: Compound was evaluated for antimicrobial activity against Campylobacter jejuni; assay type: functional
[6] = tested on: Bacteroides fragilis; experiment: Compound was evaluated for antimicrobial activity against Bacteroides fragilis; assay type: functional
[7] = tested on: Neisseria meningitidis; experiment: Compound was evaluated for antimicrobial activity against Neisseria meningitidis; assay type: functional
[8] = species: Cavia porcellus; experiment: Inhibition of histamine-stimulated chronotropic response in the isolated guinea pig right atrium at 1*10e-6 g/mL; assay type: functional, Cardiac atrium
[9] = tested on: Canis familiaris; experiment: Compound was evaluated for the inhibition of gastrin-stimulated gastric acid secretion in conscious heidenhain pouch dogs when administered 1 mg/kg perorally; assay type: functional; settings: Canis lupus familiaris, Stomach, route oral
[10] = tested on: Rattus norvegicus; experiment: Inhibition of histamine-stimulated gastric acid secretion in lumen-perfused stomach of the anaesthetized rats when administered 1 mg/kg intravenously; assay type: functional; settings: route intravenous

BISMUTH SUBSALICYLATE showed an MIC [1] of 4.7 µg/mL, an MIC [2] of 50 µg/mL and an MIC [3] of over 100 µg/mL. For the same molecule, the MIC [4] was 8.7 µg/mL, the MIC [5] was 7.4 µg/mL and the MIC [6] was 50 µg/mL. For the same molecule, the MIC [7] was 12.5 µg/mL.

CSCC/N=C(\N)Nc1nc(-c2ccc(CNC(C)=O)o2)cs1 gave an MIC [4] of 1.67 µg/mL (≈ 4.72 µM).

For CN/C(=N\CCSCc1nc[nH]c1C)NC#N [CIMETIDINE], the Inhibition [8] was 43%, the inhibition in vivo at 1 mg/kg [9] was 53% and the inhibition in vivo at 1 mg/kg [10] was 22%.

With C#CCNC(=N)Nc1nc(-c2ccc(CNC(C)=O)o2)cs1 the MIC [4] was 8.2 µg/mL (≈ 25.8 µM).

For Cc1ncc([N+](=O)[O-])n1CCO [METRONIDAZOLE], the MIC [1] was over 100 µg/mL, the MIC [2] was 0.2 µg/mL (≈ 1.17 µM) and the MIC [3] was 1.75 µg/mL (≈ 10.2 µM). For the same molecule, the MIC [4] was 5.4 µg/mL (≈ 31.6 µM), the MIC [5] was 30 µg/mL (≈ 175 µM) and the MIC [6] was 0.59 µg/mL (≈ 3.45 µM). For the same molecule, the MIC [7] was over 100 µg/mL.

For COCC/N=C(\N)Nc1nc(-c2ccc(CNC(C)=O)o2)cs1, the MIC [4] was 1.45 µg/mL (≈ 4.3 µM).

CC(=O)NCc1ccc(-c2csc(NC(=N)NCC3CC3)n2)o1 showed an MIC [4] of 1.46 µg/mL (≈ 4.38 µM).

In the case of CCCCOCC/N=C(\N)Nc1nc(-c2ccc(CNC(C)=O)o2)cs1, the MIC [4] is reported as 1.43 µg/mL (≈ 3.77 µM).

With CCOCCCC/N=C(\N)Nc1nc(-c2ccc(CNC(C)=O)o2)cs1 the MIC [4] was 1.1 µg/mL (≈ 2.9 µM).

With CC(=O)NCc1ccc(-c2csc(NC(=N)NCCO)n2)o1 the MIC [4] was 34 µg/mL (≈ 105 µM).

C=CCNC(=N)Nc1nc(-c2ccc(CNC(C)=O)o2)cs1 gave an MIC [4] of 1.45 µg/mL (≈ 4.54 µM).

Molecule CCOCC/N=C(\NCCOCC)Nc1nc(-c2ccc(CNC(C)=O)o2)cs1 has an MIC [4] of 81 µg/mL (≈ 191 µM).

Work on CC(=O)NCc1ccc(-c2csc(NC(=N)NC3CCCCC3)n2)o1 yielded an MIC [4] of 1.06 µg/mL (≈ 2.93 µM).

For CC(=O)NCc1ccc(-c2csc(NC(=N)NCCN3CCCCC3)n2)o1, the MIC [4] was 27 µg/mL (≈ 69.1 µM).

Work on CC1(C)S[C@@H]2[C@H](NC(=O)[C@H](N)c3ccc(O)cc3)C(=O)N2[C@H]1C(=O)O [AMOXICILLIN] yielded an MIC [1] of 7.7 µg/mL (≈ 21.1 µM), an MIC [2] of 0.28 µg/mL (≈ 0.766 µM) and an MIC [3] of 0.027 µg/mL (≈ 0.0739 µM). It also gave an MIC [4] of 0.021 µg/mL (≈ 0.0575 µM), an MIC [5] of 2.2 µg/mL (≈ 6.02 µM) and an MIC [6] of 2.1 µg/mL (≈ 5.75 µM). It also gave an MIC [7] of 0.056 µg/mL (≈ 0.153 µM).
